Consider one molecule from patent US11602550B2, “Compositions comprising bacterial strains and use thereof in controlling pathogenic microorganisms” (priority 2018, dated 2023).

Holding throughout (assay): Agar well diffusion antifungal assay against molds
Format in all cases: cell-based
Holding throughout (conditions): PDA plates, 25° C. 72 hours; NA: No antagonism was observed
For orientation: Agar diffusion results depend on both activity and mobility in agar.

In assay [1] the test system is Cladosporium sphaerospermum Penzig (ATCC MYA-4645). On the procedure:
(§1) The agar well diffusion assay was performed to evaluate the antagonistic activity of B. amyloliquefaciens 298 against the growth of pathogenic bacteria including Escherichia coli ATCC 22922, Pseudomonas aeruginosa, B. cereus ATCC 27348, Staphylococcus aureus ATCC 11335, Salmonella Typhimurium ATCC 14028 and Listeria innocua ATCC 3586. […] Brain Heart Infusion (BHI) Agar was used for the antagonism against pathogenic microorganisms while the Potato Dextrose Agar (PDA) was used for evaluation against molds. Reference pathogens were prepared using BHI broth at 37° C. for 18 hours while B. amyloliquefaciens 298 was grown using LB broth at 37° C. for 18 hours. Molds were prepared using PDA at 25° C. with 85% HR for 7 days. Mold spores, pathogens and B. amyloliquefaciens 298 were harvested and resuspended in PBS. Pathogens and B. amyloliquefaciens 298 were adjusted to an optical density of 0.2 and 100 uL of pathogen suspended in PBS was spread on BHI agar plates. The same amount of mold spore suspension was inoculated on PDA. Wells were made in all the plates and 20 μL of B. amyloliquefaciens 298 suspensions were inoculated in the wells while the BHI plates were incubated at 37° C. for 24 hours and PDA plates at 25° C. for 72 hours.
(§2) The agar well diffusion assay was performed to evaluate the antagonistic activity of B. subtilis 3 against the growth of pathogenic bacteria including Escherichia coli ATCC 25922, Pseudomonas aeruginosa ATCC 27853, B. cereus ATCC 27348, Staphylococcus aureus ATCC 6538, Salmonella Typhymurium ATCC 14028 and Listeria inocua ATCC 33090. […] Brain Heart Infusion (BHI) Agar was used for the antagonism against pathogenic microorganisms while the Potato Dextrose Agar (PDA) was used for evaluation against molds. Reference pathogens were prepared using BHI broth 37° C. for 18 hours, while B. subtilis 3 was grown using LB broth at 37° C. for 18 hours. Molds were prepared using PDA at 25° C. with 85% HR for 7 days. Mold spores, pathogens and B. subtilis 3 were harvested and resuspended in PBS. […] The same amount of mold spore suspension was inoculated on PDA. […]

Assay [2] has as its system Penicillium chrysogenum Thom (ATCC MYA-4644). On the procedure: as §1, §2
The subject of assay [3] is Alternaria alternata (Fries) Keissler (ATCC MYA-4642). On the procedure: as §1, §2

On to `OO` [Hydrogen peroxide 10%, Hydrogen peroxide], for which the “Inhibition zone, Cladosporium sphaerospermum Penzig (ATCC MYA-4645)” value in assay [1] is 12 mm. Further, the “Inhibition zone, Penicillium chrysogenum Thom (ATCC MYA-4644)” value in assay [2] turned out to be 10 mm. Moreover, in assay [3], the “Inhibition zone, Alternaria alternata (Fries) Keissler (ATCC MYA-4642)” value is 8 mm.
